What was measured:
[1] = system: SK-BR-3 tumor cells; assay: Inhibition of in vitro proliferation of tumor cells by compounds (CTG, 6 days); format: cell-based; conditions: Homo sapiens, SK-BR-3, 144 h, read-out: IC50 in inhibiting in vitro proliferation of SK-BR-3 cells
Description: (§1) This experiment was intended to detect the inhibitory activity of the pharmaceutical compounds of the present disclosure against the in vitro proliferation of U87MG cells (Cell Bank, Chinese Academy of Sciences, Catalog #TCHu138) and SK-BR-3 tumor cells (human breast cancer cells, ATCC, Cat #HTB-30). The cells were treated in vitro with a compound at different concentrations. After 6 days of culture, the proliferation of cells was tested using CTG (CellTiter-Glo® Luminescent Cell Viability Assay, Promega, Cat #G7573) reagents, and the in vitro activity of the compound was evaluated according to IC50 value.
(§2) The method for testing the inhibition of the in vitro proliferation of U87MG cells was described below as an example for the method for assaying for the inhibitory activity of the compounds of the present disclosure against the in vitro proliferation of tumor cells.
(§3) 1. Cell culture: U87MG and SK-BR-3 cells were cultured in EMEM medium (GE, Cat #SH30024.01) containing 10% FBS and McCoy's 5A medium (Gibco, Cat #16600-108) containing 10% FBS, respectively.
(§4) 2. Cell preparation: U87MG and SK-BR-3 cells growing at log phase were washed once with PBS (phosphate buffer, Shanghai BasalMedia Technologies Co., Ltd.) and then digested with 2-3 mL of trypsin (0.25% Trypsin-EDTA (1×), Gibico, Life Technologies) for 2-3 min After the cells were completely digested, 10-15 mL of cell culture media were added to elute the digested cells. The mixtures were centrifuged at 1000 rpm for 5 min, and the supernatants were discarded. Then the cells were resuspended in 10-20 mL of cell culture media to give single-cell suspensions.
(§5) 3. Cell plating: the U87MG and SK-BR-3 single-cell suspensions were each well mixed and adjusted with cell culture media to cell densities of 2.75×10^3 cells/mL and 8.25×10^3 cells/mL, respectively. The adjusted cell suspensions were each well mixed and added to 96-well cell culture plates at 180 μL/well. To each of the peripheral wells of the 96-well plates was added 200 μL of media only. The plate was incubated in an incubator for 24 h (37° C., 5% CO2).
(§6) 4. Compound preparation: the compound was dissolved in DMSO (dimethyl sulfoxide, Shanghai Titan Scientific Co., Ltd.) to prepare a stock solution at an initial concentration of 10 mM.
(§7) Small molecule compounds were prepared at an initial concentration of 500 nM as follows.
(§8) Different test samples at 100 μM (30 μL) were added to the first column of a 96-well U-bottom plate, and 20 μL of DMSO was added to each well of the second column through the eleventh column. […]
(§9) 7. Plate reading: the 96-well cell culture plate was taken out and tested in a microplate reader (BMG labtech, PHERAstar FS) for chemiluminescence.
(§10) Data were processed and analyzed using Microsoft Excel and Graphpad Prism 5.

[2] = system: U87MG cells; assay: as above; format: cell-based; conditions: Homo sapiens, U-87 MG, 144 h, read-out: IC50 in inhibiting in vitro proliferation of U87 cells
Description: as §1, §2, §3, §4, §5, §6, §7, §8, §9, §10

[3] = system: human breast cancer cells trastuzumab drug-resistant strain (herceptin) JIMT-1 xenograft tumor; assay: Drug efficacy on JIMT-1 tumor-bearing mice; format: in vivo, nu/nu nude mice; conditions: 10 mg/kg; two intraperitoneal injections; observation for 34 days
Description: The tumor volumes and body weights were measured twice a week and the results were recorded.
Tumor volume (V) was calculated as: V=½×Llong×Lshort^2

Row | Compound | IC50 [1] [nM] | IC50 [2] [nM] | tumor inhibition rate [3]
1 | CC[C@@]1(O)C(=O)OCc2c1cc1n(c2=O)Cc2c-1nc1cc(F)c(C)c3c1c2[C@@H](NC(=O)C1(O)CCCC1)CC3 [Compound 4, N-((1S,9S)-9-ethyl-5-fluoro-9-hydroxy-4-methyl-10,13-dioxo-2,3,9,10,13,15-hexahydro-1H,12H-benzo[de]pyrano[3′,4′:6,7]indolizino[1,2-b]quinolin-1-yl)-1-hydroxycyclopentane-1-carboxamide] | 1.9 |  | 
2 | CC[C@@]1(O)C(=O)OCc2c1cc1n(c2=O)Cc2c-1nc1cc(F)c(C)c3c1c2[C@@H](NC(=O)C1(CO)CC1)CC3 [Compound 5, N-((1S,9S)-9-ethyl-5-fluoro-9-hydroxy-4-methyl-10,13-dioxo-2,3,9,10,13,15-hexahydro-1H,12H-benzo[de]pyrano[3′,4′:6,7]indolizino[1,2-b]quinolin-1-yl)-1-(hydroxymethyl)cyclopropane-1-carboxamide] |  | 4.81 | 
3 | CC[C@@]1(O)C(=O)OCc2c1cc1n(c2=O)Cc2c-1nc1cc(F)c(C)c3c1c2[C@@H](NC(=O)C1(O)CC1)CC3 [Compound 1, N-((1S,9S)-9-ethyl-5-fluoro-9-hydroxy-4-methyl-10,13-dioxo-2,3,9,10,13,15-hexahydro-1H,12H-benzo[de]pyrano[3′,4′:6,7]indolizino[1,2-b]quinolin-1-yl)-1-hydroxycyclopropane-1-carboxamide] | 0.12 | 0.23 | 
4 | T-DM1 |  |  | no inhibition effect on tumors
